± gives the expanded uncertainty stated by the source.
Assay: xn = mol fraction of the nth substance listed
Settings: 101 kPa, Liquid, Pycnometric method

CCCO [propan-1-ol] + NC=O
x2 = 0
Settings | mass density [kg/m3]
293.15 K | 803.71 ± 0.21
298.15 K | 799.74 ± 0.22
303.15 K | 795.77 ± 0.23
308.15 K | 791.8 ± 0.24
313.15 K | 787.83 ± 0.25
318.15 K | 783.86 ± 0.26

NC=O [formamide] + CCO
mass density [kg/m3]
Settings | 293.15 K | 298.15 K | 303.15 K | 308.15 K | 313.15 K | 318.15 K
x1 = 0.0698 | 807.47 ± 0.22 | 803.3 ± 0.23 | 799.14 ± 0.24 | 794.94 ± 0.24 | 790.75 ± 0.25 | 786.59 ± 0.26
x1 = 0.1412 | 826.72 ± 0.22 | 822.6 ± 0.23 | 818.49 ± 0.24 | 814.41 ± 0.25 | 810.28 ± 0.26 | 806.17 ± 0.27
x1 = 0.2032 | 844.13 ± 0.23 | 840.06 ± 0.24 | 835.99 ± 0.25 | 831.94 ± 0.26 | 827.87 ± 0.27 | 823.84 ± 0.28
x1 = 0.268 | 862.91 ± 0.24 | 858.91 ± 0.24 | 854.91 ± 0.25 | 850.86 ± 0.26 | 846.85 ± 0.27 | 842.82 ± 0.28
x1 = 0.3234 | 879.65 ± 0.24 | 875.69 ± 0.25 | 871.68 ± 0.26 | 867.71 ± 0.27 | 863.74 ± 0.28 | 859.75 ± 0.29
x1 = 0.3874 | 899.52 ± 0.25 | 895.58 ± 0.26 | 891.65 ± 0.27 | 887.7 ± 0.28 | 883.75 ± 0.29 | 879.8 ± 0.3
x1 = 0.4365 | 915.29 ± 0.25 | 911.35 ± 0.26 | 907.45 ± 0.27 | 903.54 ± 0.28 | 899.61 ± 0.29 | 895.7 ± 0.3
x1 = 0.4962 | 935.06 ± 0.26 | 931.19 ± 0.27 | 927.32 ± 0.28 | 923.4 ± 0.29 | 919.52 ± 0.3 | 915.62 ± 0.31
x1 = 0.5423 | 950.83 ± 0.27 | 946.93 ± 0.28 | 943.06 ± 0.29 | 939.2 ± 0.29 | 935.3 ± 0.3 | 931.42 ± 0.31
x1 = 0.5958 | 969.63 ± 0.27 | 965.8 ± 0.28 | 961.95 ± 0.29 | 958.11 ± 0.3 | 954.29 ± 0.31 | 950.42 ± 0.32
x1 = 0.6456 | 987.65 ± 0.28 | 983.82 ± 0.29 | 979.98 ± 0.3 | 976.18 ± 0.31 | 972.35 ± 0.32 | 968.54 ± 0.33
x1 = 0.708 | 1010.93 ± 0.29 | 1007.05 ± 0.3 | 1003.21 ± 0.31 | 999.36 ± 0.32 | 995.49 ± 0.33 | 991.62 ± 0.33
x1 = 0.7748 | 1036.9 ± 0.3 | 1033.01 ± 0.31 | 1029.13 ± 0.32 | 1025.26 ± 0.32 | 1021.35 ± 0.33 | 1017.44 ± 0.34
x1 = 0.8532 | 1068.57 ± 0.31 | 1064.68 ± 0.32 | 1060.75 ± 0.33 | 1056.82 ± 0.34 | 1052.93 ± 0.35 | 1049.03 ± 0.35
x1 = 0.9282 | 1100.66 ± 0.32 | 1096.71 ± 0.33 | 1092.76 ± 0.34 | 1088.83 ± 0.35 | 1084.87 ± 0.36 | 1080.95 ± 0.37
x1 = 1 | 1133 ± 0.32 | 1129 ± 0.33 | 1125 ± 0.34 | 1121 ± 0.35 | 1117 ± 0.36 | 1113 ± 0.37
